Source: patent US20100190747A1, “Fused ring compound and use thereof” (priority 2009, published 2010)

What follows are compounds tested against T1, delta-5-desaturase (Rattus norvegicus, UniProt Q920R3) (assay: Inhibitory activity on delta-5-desaturase (rat liver microsomal fraction, 14C-eicosatrienoic acid, TLC)). Settings: test compound at 10 μM, room temperature, 120 minutes.
T1 construct: the microsomal fraction of a rat river (10 μl), which had been diluted to 3 mg/ml; from tissue; host or cells: rat liver microsomal fraction
Assay type: biochemical
Outline: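 Rat liver microsomes (3 mg/ml before addition) incubated with test compound at 10 μM, NADH, ATP, CoA and 14C-eicosatrienoic acid in phosphate buffer pH 7.4 with BSA and glutathione, 120 min at room temperature. Lipids saponified, extracted, separated by reverse-phase TLC and imaged; % inhibition reported.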

T1 sequence (Q920R3 whole entry): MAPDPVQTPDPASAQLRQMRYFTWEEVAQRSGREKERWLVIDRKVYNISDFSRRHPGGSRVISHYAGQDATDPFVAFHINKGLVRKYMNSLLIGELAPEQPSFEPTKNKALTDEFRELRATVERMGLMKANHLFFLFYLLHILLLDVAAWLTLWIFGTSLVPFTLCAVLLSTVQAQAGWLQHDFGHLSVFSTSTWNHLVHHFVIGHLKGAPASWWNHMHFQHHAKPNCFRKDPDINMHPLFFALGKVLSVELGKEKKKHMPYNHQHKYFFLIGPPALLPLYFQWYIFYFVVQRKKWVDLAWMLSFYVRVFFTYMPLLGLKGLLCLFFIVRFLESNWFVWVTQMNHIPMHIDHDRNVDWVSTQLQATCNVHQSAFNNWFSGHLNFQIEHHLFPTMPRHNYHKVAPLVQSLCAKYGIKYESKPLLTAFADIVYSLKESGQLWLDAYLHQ

inhibition at 10 µM	Compound
99%	N#CCCNC(=O)CCCSc1nc2[nH]ccc2c(=O)n1-c1ccc(OCC2CCC2)cc1 [Example 183, N-(2-cyanoethyl)-4-({3-[4-(cyclobutylmethoxy)phenyl]-4-oxo-4,7-dihydro-3H-pyrrolo[2,3-d]pyrimidin-2-yl}sulfanyl)butanamide]
97%	N#CCCNC(=O)CCCSc1nc2[nH]ccc2c(=O)n1-c1ccc(OCC2CC2)cc1 [Example 185, N-(2-cyanoethyl)-4-({3-[4-(cyclopropylmethoxy)phenyl]-4-oxo-4,7-dihydro-3H-pyrrolo[2,3-d]pyrimidin-2-yl}sulfanyl)butanamide]
98%	CC1(COc2ccc(-n3c(SCCCC(=O)NCCC#N)nc4[nH]ccc4c3=O)cc2)CC1 [Example 188, N-(2-cyanoethyl)-4-[(3-{4-[(1-methylcyclopropyl)methoxy]phenyl}-4-oxo-4,7-dihydro-3H-pyrrolo[2,3-d]pyrimidin-2-yl)sulfanyl]butanamide]
105%	N#CCCNC(=O)CCCSc1nc2[nH]ccc2c(=O)n1-c1ccc(OCCC(F)(F)F)cc1 [Example 189, N-(2-cyanoethyl)-4-({4-oxo-3-[4-(3,3,3-trifluoropropoxy)phenyl]-4,7-dihydro-3H-pyrrolo[2,3-d]pyrimidin-2-yl}sulfanyl)butanamide]
101%	COCCOCCCSc1nc2[nH]ccc2c(=O)n1-c1ccc(OCC(F)(F)F)cc1 [Example 191, 2-{[3-(2-Methoxyethoxy)propyl]sulfanyl}-3-[4-(2,2,2-trifluoroethoxy)phenyl]-3,7-dihydro-4H-pyrrolo[2,3-d]pyrimidin-4-one]
101%	CCOCCOCCSc1nc2[nH]ccc2c(=O)n1-c1ccc(OCC(F)(F)F)cc1 [Example 192, 2-{[2-(2-Ethoxyethoxy)ethyl]sulfanyl}-3-[4-(2,2,2-trifluoroethoxy)phenyl]-3,7-dihydro-4H-pyrrolo[2,3-d]pyrimidin-4-one]
100%	CCn1ccc2c(=O)n(-c3ccc(OCC(F)(F)F)cc3)c(SCCCC(=O)NCCC#N)nc21 [Example 193]
103%	CCSc1nc2[nH]ccc2c(=O)n1-c1ccc(OCC(F)(F)F)cc1 [Example 194, 2-(Ethylsulfanyl)-3-[4-(2,2,2-trifluoroethoxy)phenyl]-3,7-dihydro-4H-pyrrolo[2,3-d]pyrimidin-4-one]
101%	Cn1ccc2c(=O)n(-c3ccc(OCC(F)(F)F)cc3)c(SCCCC(=O)NCCC#N)nc21 [Example 195]
101%	CCS(=O)(=O)c1nc2[nH]ccc2c(=O)n1-c1ccc(OCC(F)(F)F)cc1 [Example 207, 2-(Ethylsulfonyl)-3-[4-(2,2,2-trifluoroethoxy)phenyl]-3,7-dihydro-4H-pyrrolo[2,3-d]pyrimidin-4-one]
100%	CCSc1nc2[nH]ccc2c(=O)n1-c1ccc(OCC2CC2)cc1 [Example 208, 3-[4-(Cyclopropylmethoxy)phenyl]-2-(ethylsulfanyl)-3,7-dihydro-4H-pyrrolo[2,3-d]primidin-4-one]
99%	CCOc1nc2[nH]ccc2c(=O)n1-c1ccc(OCC(F)(F)F)cc1 [Example 209, 2-Ethoxy-3-[4-(2,2,2-trifluoroethoxy)phenyl]-3,7-dihydro-4H-pyrrolo[2,3-d]pyrimidin-4-one]
98%	CSc1nc2[nH]ccc2c(=O)n1-c1ccc(OCC(F)(F)F)cc1 [Example 212, 2-(Methylsulfanyl)-3-[4-(2,2,2-trifluoroethoxy)phenyl]-3,7-dihydro-4H-pyrrolo[2,3-d]pyrimidin-4-one]
100%	CCOCCCSc1nc2[nH]ccc2c(=O)n1-c1ccc(OCC(F)(F)F)cc1 [Example 213, 2-[(3-Ethoxypropyl)sulfanyl]-3-[4-(2,2,2-trifluoroethoxy)phenyl]-3,7-dihydro-4H-pyrrolo[2,3-d]pyrimidin-4-one]
101%	O=c1c2cc[nH]c2nc(SCCO)n1-c1ccc(OCC(F)(F)F)cc1 [Example 214, 2-[(2-Hydroxyethyl)sulfanyl]-3-[4-(2,2,2-trifluoroethoxy)phenyl]-3,7-dihydro-4H-pyrrolo[2,3-d]pyrimidin-4-one]
102%	CS(=O)(=O)CCCSc1nc2[nH]ccc2c(=O)n1-c1ccc(OCC2CC2)cc1 [Example 215, 3-[4-(Cyclopropylmethoxy)phenyl]-2-{[3-(methylsulfonyl)propyl]sulfanyl}-3,7-dihydro-4H-pyrrolo[2,3-d]pyrimidin-4-one]
99%	CCCOc1nc2[nH]ccc2c(=O)n1-c1ccc(OCC(F)(F)F)cc1 [Example 217, 2-Propoxy-3-[4-(2,2,2-trifluoroethoxy)phenyl]-3,7-dihydro-4H-pyrrolo[2,3-d]pyrimidin-4-one]
102%	O=c1c2cc[nH]c2nc(SCC(O)COC2CCOCC2)n1-c1ccc(OCC(F)(F)F)cc1 (centres unmarked) [Example 219, 2-{[2-Hydroxy-3-(tetrahydro-2H-pyran-4-yloxy)propyl]sulfanyl}-3-[4-(2,2,2-trifluoroethoxy)phenyl]-3,7-dihydro-4H-pyrrolo[2,3-d]pyrimidin-4-one]
104%	CC(C)Oc1nc2[nH]ccc2c(=O)n1-c1ccc(OCC(F)(F)F)cc1 [Example 221, 2-(1-Methylethoxy)-3-[4-(2,2,2-trifluoroethoxy)phenyl]-3,7-dihydro-4H-pyrrolo[2,3-d]pyrimidin-4-one]
103%	O=c1c2cc[nH]c2nc(SC(F)F)n1-c1ccc(OCC(F)(F)F)cc1 [Example 223, 2-[(Difluoromethyl)sulfanyl]-3-[4-(2,2,2-trifluoroethoxy)phenyl]-3,7-dihydro-4H-pyrrolo[2,3-d]pyrimidin-4-one]
100%	CCCSc1nc2[nH]ccc2c(=O)n1-c1ccc(OCC(F)(F)F)cc1 [Example 224, 2-(Propylsulfanyl)-3-[4-(2,2,2-trifluoroethoxy)phenyl]-3,7-dihydro-4H-pyrrolo[2,3-d]pyrimidin-4-one]
100%	O=c1c2cc[nH]c2nc(SCC(F)(F)F)n1-c1ccc(OCC(F)(F)F)cc1 [Example 225, 3-[4-(2,2,2-Trifluoroethoxy)phenyl]-2-[(2,2,2-trifluoroethyl)sulfanyl]-3,7-dihydro-4H-pyrrolo[2,3-d]pyrimidin-4-one]
102%	O=c1c2cc[nH]c2nc(OCC2CC2)n1-c1ccc(OCC(F)(F)F)cc1 [Example 226, 2-(Cyclopropylmethoxy)-3-[4-(2,2,2-trifluoroethoxy)phenyl]-3,7-dihydro-4H-pyrrolo[2,3-d]pyrimidin-4-one]
99%	O=c1c2cc[nH]c2nc(OCC(F)(F)F)n1-c1ccc(OCC(F)(F)F)cc1 [Example 227, 2-(2,2,2-Trifluoroethoxy)-3-[4-(2,2,2-trifluoroethoxy)phenyl]-3,7-dihydro-4H-pyrrolo[2,3-d]pyrimidin-4-one]

Compound	inhibition at 10 µM
N#CCCNC(=O)CCCSc1nc2[nH]ccc2c(=O)n1-c1ccc(OCCCC(F)(F)F)cc1 [Example 186, N-(2-cyanoethyl)-4-({4-oxo-3-[4-(4,4,4-trifluorobutoxy)phenyl]-4,7-dihydro-3H-pyrrolo[2,3-d]pyrimidin-2-yl}sulfanyl)butanamide]	100%
CCCCOc1nc2[nH]ccc2c(=O)n1-c1ccc(OCC(F)(F)F)cc1 [Example 222, 2-Butoxy-3-[4-(2,2,2-trifluoroethoxy)phenyl]-3,7-dihydro-4H-pyrrolo[2,3-d]pyrimidin-4-one]	101%
